Measured values taken from patent US20230390303A1, “CANCER TREATMENT BY COMBINATION OF EP4 ANTAGONIST AND IMMUNE CHECKPOINT INHIBITOR” (priority 2020, published 2023).

Columns and labels:
Format in all cases: in vivo, human
[1] = system: curatively resectable locally advanced rectal cancer; experiment: Open-label, uncontrolled study: Compound A or Compound A plus Nivolumab as preoperative adjuvant therapy after preoperative chemoradiotherapy; settings: Compound A 40 mg QD oral alone then with Nivolumab 240 mg Q2W IV (cohort 1) or in combination (cohort 2), after preoperative CRT; pCR = AJCC Tumor regression grade 0 (ypT0N0); 10 months after registration of the first patient
Source text: The purpose of this study was to examine the efficacy, pharmacokinetics and safety of Compound A administered alone and/or Compound A and Nivolumab administered in combination as a preoperative adjuvant therapy after a preoperative chemoradiotherapy (CRT) for curatively resectable locally advanced rectal cancer. The trial could evaluate the effect of Compound A and/or a combination of Compound A and Nivolumab as a preoperative adjuvant therapy.
Curatively Resectable Locally Advanced Rectal Cancer
As the preoperative CRT, the investigational new drug was administered to a patient who was treated and satisfied the following conditions. • 45 Gy/25 times of irradiation to the pelvic cavity and 5.4 Gy/3 times of boost irradiation to the primary lesion were performed. • the administration of Capecitabine was started at a dose of 1,650 mg/m^2 (825 mg/m^2 twice a day) per day. The starting dose was determined based on Method D of dosage and administration of Xeloda (registered trademark) tablet 300. • The oral administration of Capecitabine was performed in a period corresponding to 75% of 28 times which was the number of times of irradiation of radioactive ray in combination with the irradiation of radioactive ray (for example, in the case of 50.4 Gy/28 times of irradiation, oral administration for 21 days or 42 times or more as oral administration in the morning and evening). […]

[2] = system: pancreatic cancer with distant metastasis; experiment: Open-label, uncontrolled study: Compound A, Nivolumab and mFFX therapy or GnP therapy as primary treatment; settings: RECIST Guideline 1.1
Source text: This study aims to study the tolerability, safety and efficacy of a combination of Compound A as a primary treatment, Nivolumab and mFFX therapy or GP therapy in pancreatic cancer patients with distant metastases. The trial could evaluate the effect of the combination with Compound A, Nivolumab and mFFX therapy or Gnp therapy.
Pancreatic cancer patients with distant metastases
At the time of registration, patients who had not been treated with systemic antineoplastic agents for pancreatic cancer with distant metastases and who met all pre-determined patient selection criteria determined in view of the patient selection criteria in each trial performed so far for Compound A, Nivolumab and mFFX therapy or GnP therapy were selected.
Compound A was orally administered once a day at a dose of 20 mg or 40 mg per administration, wherein the administration was continued until predetermined criteria for discontinuation of administration related to Compound A was met. Note that when Compound A, Nivolumab and the mFFX therapy or GnP therapy were administered on the same day, Compound A and Nivolumab were administered first, and after Compound A and Nivolumab were administered, followed by starting of the mFFX therapy or GnP therapy. […]

[3] = system: advanced or recurrent non-small cell lung cancer refractory to a combination therapy including an anti-PD-1 antibody or an anti-PD-L1 antibody, and a platinum …; experiment: Open-label, uncontrolled study: Compound A, Nivolumab, Docetaxel and Ramucirumab as secondary therapy; settings: Compound A 20 mg or 40 mg orally once a day + Nivolumab 360 mg IV at 3-week intervals + Docetaxel 60 mg/m^2 and Ramucirumab 10 mg/kg at 3-week intervals; RECIST Guideline 1.1; 8 months after the registration of the first patient
Source text: The purpose of this study is to examine the tolerability, safety, and efficacy of a combination of Compound A, Nivolumab, Docetaxel, and Ramucirumab as a secondary therapy in non-small cell lung cancer patients who had progressed or relapsed refractory to a combination therapy including an anti-PD-1 antibody or an anti-PD-L1 antibody and a platinum preparation. This trial can evaluate the effect of combination of Compound A, Nivolumab, Docetaxel, and Ramucirumab.
Patients with stage IV or recurrent non-small cell lung cancer
Compound A was orally administered once a day at a dose of 20 mg or 40 mg per administration, and the administration was continued until the predetermined criteria for discontinuation of administration related to Compound A were met. […]
A principal investigator or a sub-investigator measured a tumor diameter of a target lesion according to RECIST Guideline 1.1 to determine the antitumor effect. […] Imaging diagnosis in the treatment phase was performed at 6-week intervals (±7 days) from Day 1 of the first cycle to Week 54, and thereafter at 12-week intervals (±7 days), and the tumor diameter was measured.
The overall response and the best overall response were diagnostic imaging results evaluated based on the RECIST Guideline 1.1. […]

[4] = system: radically unresectable advanced or recurrent colonic/rectal cancer; experiment: Open-label, uncontrolled study: Compound A, Nivolumab and XELOX plus Bevacizumab therapy as primary treatment; settings: Compound A 20 mg or 40 mg orally once a day + Nivolumab 360 mg IV at 3-week intervals + XELOX plus Bevacizumab therapy; RECIST Guideline 1.1; 10 months after the first patient was registered
Source text: The purpose of this study is to examine the tolerability, safety, and efficacy of a combination of Compound A, Nivolumab, and XELOX plus Bevacizumab therapy as a primary treatment in patients with radically unresectable advanced or recurrent colonic/rectal cancer. This trial can evaluate the effect of the combination of Compound A, Nivolumab, and a XELOX plus Bevacizumab therapy.
Patients with radically unresectable advanced or recurrent colonic/rectal cancer.
At the time of registration, patients were selected, who had not been treated with a systemic antineoplastic agent for radically unresectable advanced or recurrent colonic/rectal cancer and who met all pre-determined patient selection criteria determined in view of the patient selection criteria in each trial performed so far for Compound A, Nivolumab and XELOX plus Bevacizumab therapy. When it became clear from the registration that the criteria were not satisfied before the first administration of the investigational new drug, the administration of the investigational new drug was not started and the study was discontinued. […]
A principal investigator or a sub-investigator measured a tumor diameter of a target lesion according to RECIST Guideline 1.1 to determine the antitumor effect. […]

Structure (SMILES): CC(C)NC(=O)c1ccc2c(c1)[C@]1(CCO2)C[C@H]1C(=O)Nc1cc(C#N)ccc1CCCC(=O)O [Compound A, 4-[4-cyano-2-({(2′R,4S)-6-[(propane-2-yl)carbamoyl]-2,3-dihydrospiro[1-benzopyran-4,1′-cyclopropane]-2′-carbonyl}amino)phenyl]butanoic acid]
- cases determined to be pCR [1]: 3 cases
- cases judged to be PR ([2]; Compound A 20 mg or 40 mg orally once a day + Nivolumab 480 mg IV at 4-week intervals + GnP therapy, 9 months after registration of the first patient): two
- case determined to be PR ([2]; Compound A 20 mg or 40 mg orally once a day + Nivolumab 480 mg IV at 4-week intervals + mFFX therapy, 9 months after the registration of the first patient): one
- case determined to be PR [3]: one
- cases determined to be PR [4]: 2 cases
